From article PMC7463537, “Synthesis and Evaluation of Antimicrobial and Cytotoxic Activity of Oxathiine-Fused Quinone-Thioglucoside Conjugates of Substituted 1,4-Naphthoquinones” (Molecules, 2020)
≈ marks a conversion by molar mass, not a printed value.

Experiments:
S. aureus ATCC 21027 [1] = test: Agar diffusion method, S. aureus; format: cell-based, Staphylococcus aureus; set-up: key to Diameter of Zone Inhibition, S. aureus: Zones within 20–40 mm mean strong antibiotic activity; zones up to 20 mm—moderate; ≤10 mm—weak; +—insignificant; conditions: for zone of inhibition at 1 µg/disc / zone of inhibition at 100 µg/disc: Staphylococcus aureus, read-out: Diameter of Zone Inhibition, S. aureus; for zone of inhibition at 1 µg/disc: ATCC21027, 1 µg/well; for zone of inhibition at 100 µg/disc: ATCC21027, 24 h, 100 µg/well, 24 h, incl. 7 mm well
Description: (§1) Elyakov Pacific Institute of Bioorganic Chemistry, Far East Branch, Russian Academy of Sciences. Test substances were dissolved in DMSO at concentrations of 1.0, 0.1, and 0.01 mg/mL. All strains were grown on trypticase-soy agar TSA (BBL) at 37 °C. […] After incubation of the dishes at 37 °C for 24 h (for bacteria) and 48 h (for the fungus) at 28 °C, the diameters of the growth inhibition zones of pathogenic microorganisms (mm) were measured, including the diameter of the wells. Commercial antibacterial drugs (vancomicin and gentamicin) and antifungal (clotrimazol) drugs were used as positive controls.

B. cereus ATCC 10702 = test: Agar diffusion method, B. cereus; format: cell-based, Bacillus cereus; set-up: key to Diameter of Zone Inhibition, B. cereus: Zones within 20–40 mm mean strong antibiotic activity; zones up to 20 mm—moderate; ≤10 mm—weak; +—insignificant; conditions: for zone of inhibition at 1 µg/disc / zone of inhibition at 100 µg/disc: Bacillus cereus, read-out: Diameter of Zone Inhibition, B. cereus; for zone of inhibition at 1 µg/disc: ATCC10702, 1 µg/well; for zone of inhibition at 100 µg/disc: ATCC10702, 24 h, 100 µg/well, 24 h, incl. 7 mm well; for Diameter of Zone Inhibition, B. cereus: 1 µg/well
Description: as §1

P. aeruginosa ATCC 27853 = test: Agar diffusion method, P. aeruginosa; format: cell-based, Pseudomonas aeruginosa; conditions: Pseudomonas aeruginosa, ATCC27853, 100 µg/well; read-out: Diameter of Zone Inhibition, P. aeruginosa
Description: as §1

E. coli K-12 = test: Agar diffusion method, E. coli; format: cell-based, Escherichia coli; conditions: Escherichia coli, K12; 100 µg/well; read-out: Diameter of Zone Inhibition, E. coli
Description: as §1

C. albicans KMM 453 = test: Agar diffusion method, C. albicans; format: cell-based; conditions: Candida albicans, KMM453, 48 h, 100 µg/well, 48 h at 28 °C; read-out: Diameter of Zone Inhibition, C. albicans
Description: as §1

S. aureus ATCC 21027 [2] = test: Minimum inhibitory concentration, broth microdilution; format: cell-based, Staphylococcus aureus; conditions: for MIC: Staphylococcus aureus, ATCC21027, broth microdilution, 24 h, read-out: Minimum inhibitory concentration (MIC) against S. aureus; for Selectivity index (SI) against S. aureus: SI = EC50 (normal Jb6 Cl 41-5a cells)/MIC
Description: Stocks of substances were prepared in DMSO at a concentration of 10 mM. All studied compounds were tested in concentrations from 1.5 μM to 100 μM using twofold dilution. All tested compounds were add to the wells of the plates in a volume of 20 μL diluted in PBS (DMSO concentration < 1%). The bacterial culture of S. aureus ATCC 21027 (Collection of Marine Microorganisms PIBOC FEB RAS) was cultured in a Petri dish at 37 °C for 24 h on solid medium with the following composition; pepton—5.0 g/L, K2HPO4—0.2 g/L, glucose—1.0 g/L, MgSO4—0.05 g/L, yeast extract—1 g/L, agar—16.0 g/L, and distilled water—1.0 L. The pH of the medium was adjusted to 7.2–7.4 with NaOH solution.
The antimicrobial activity of the compounds was determined by the minimum inhibitory concentration (MIC) according to the method adopted by the Clinical and Laboratory Standards Institute (CLSI). Methods for dilution antimicrobial susceptibility tests for bacteria that grow aerobically followed the approved standard—tenth edition. CLSI document M07-A10, PA: Clinical and Laboratory Standards Institute; 2015, with a slight modification of the medium. The assays were performed in 96-well microplates in appropriate broth (pepton—5.0 g/L, K2HPO4—0.2 g/L, glucose—1.0 g/L, MgSO4—0.05 g/L, yeast extract—1 g/L, casein hydrolyzate—2.5 g/L, distilled water—1L). […] The MIC value is defined as the lowest concentration of compounds resulting in the complete inhibition of bacterial growth by measuring the absorbance at 600 nm with a microplate reader (BioTek, Winooski, Vt, USA). All experiments were performed twice in triplicate. Gentamicin was used as a positive control in concentration 1 mg/mL; 1% DMSO solution in PBS as a negative. The selectivity index for S. aureus has been defined as the ratio of EC50 for normal cells and the MIC value for the bacterial culture (SI = EC50/MIC).

[3] = test system: human cervical cancer (HeLa); test: Cytotoxicity, MTT assay, HeLa cells; conditions: for EC50: Homo sapiens, HeLa, 24 h, read-out: Cytotoxicity (EC50), HeLa; for Selectivity Index (SI), HeLa: SI = EC50 (Jb6 Cl 41-5a normal cells)/EC50 (tumor cells)
[4] = test system: mouse neuroblastoma (Neuro 2a); test: Cytotoxicity, MTT assay, Neuro 2a cells; conditions: for EC50: N2a, 24 h, read-out: Cytotoxicity (EC50), Neuro 2a; for Selectivity Index (SI), Neuro-2a: SI = EC50 (Jb6 Cl 41-5a normal cells)/EC50 (tumor cells)
[5] = Cytotoxicity, MTT assay, Jb6 Cl 41-5a normal epithelial cells; conditions: mouse, Jb6 Cl 41-5a normal epithelial cells
[6] = test system: mouse ascites Ehrlich carcinoma; test: Cytotoxicity, nonspecific esterase (FDA) assay, ascites Ehrlich carcinoma cells; conditions: for EC50: Mus musculus, Ehrlich, 24 h, read-out: Cytotoxicity (EC50), Ascites Ehrlich Carcinoma; for Selectivity Index (SI), Ascitic Ehrlich Carcinoma: SI = EC50 (Jb6 Cl 41-5a normal cells)/EC50 (tumor cells)
[7] = test system: Gram-positive bacteria (S. aureus, B. cereus); test: Agar diffusion method, Gram-positive strains; format: cell-based, Staphylococcus aureus, Bacillus cereus; conditions: for Antimicrobial activity / inhibition zone diameter, Gram-positive bacteria: 10 µg/well; for Antimicrobial activity, Gram-positive strains: dilution to 1 µg/well
Description: as §1

MIC (S. aureus ATCC 21027 [2]) | melting point | Structure (SMILES) | zone of inhibition at 1 µg/disc (S. aureus ATCC 21027 [1]) | zone of inhibition at 100 µg/disc (S. aureus ATCC 21027 [1]) | zone of inhibition at 1 µg/disc (B. cereus ATCC 10702) | zone of inhibition at 100 µg/disc (B. cereus ATCC 10702) | zone of inhibition at 100 µg/disc (P. aeruginosa ATCC 27853) | zone of inhibition at 100 µg/disc (E. coli K-12) | zone of inhibition at 100 µg/disc (C. albicans KMM 453) | EC50 [3] | Selectivity Index (SI), HeLa [3] | EC50 [4] | Selectivity Index (SI), Neuro-2a [4] | EC50 at 24 h [5] | EC50 [6] | Selectivity Index (SI), Ascitic Ehrlich Carcinoma [6] | Diameter of Zone Inhibition, B. cereus (B. cereus ATCC 10702) | Selectivity index (SI) against S. aureus (S. aureus ATCC 21027 [2]) | Antimicrobial activity / inhibition zone diameter, Gram-positive bacteria [7] | Antimicrobial activity, Gram-positive strains [7] | other results
25 µM (≈ 9.16 µg/mL) | 293 to 295 °C | O=C1C2=C(O[C@@H]3[C@@H](O)[C@@H](O)[C@@H](CO)O[C@H]3S2)C(=O)c2c(O)cccc21 [Compound 20b, (2R,3R,4S,4aR,12aS)-3,4,7-Trihydroxy-2-hydroxymethyl-3,4,4a,12a-tetrahydro-2H-naphtho[2,3-b]pyrano[2,3-e][2,5]oxathiine-6,11-dione] | 0 mm | 30 ± 2 mm | 0 mm | 20 ± 1 mm | 0 mm | 0 mm | 0 mm | 4700 nM | 0.1 | 1200 nM | 0.4 | 500 nM | 1100 nM | 0.5 |  |  |  |  | 
6.25 µM (≈ 2.1 µg/mL) |  | O=C1C2=C(O[C@@H]3[C@@H](O)[C@@H](O)CO[C@H]3S2)C(=O)c2c(O)cccc21 [Compound 20d, (3S,4S,4aR,12aS)-3,4,7-Trihydroxy-3,4,4a,12a-tetrahydro-2H-naphtho[2,3-b]pyrano[2,3-e][2,5]oxathiine-6,11-dione] | 0 mm | 40 ± 2 mm |  | 30 ± 3 mm | 0 mm | 0 mm | 0 mm | 400 nM | 1.75 | 1400 nM | 0.5 | 700 nM | 1200 nM | 0.6 | + | 0.1 | comparable with antibiotics vancomicin and gentamicin | residual effect | 
12.5 µM (≈ 4.2 µg/mL) |  | O=C1C2=C(O[C@@H]3[C@@H](O)[C@H](O)CO[C@H]3S2)C(=O)c2c(O)cccc21 [Compound 20c, (3R,4S,4aR,12aS)-3,4,7-Trihydroxy-3,4,4a,12a-tetrahydro-2H-naphtho[2,3-b]pyrano[2,3-e][2,5]oxathiine-6,11-dione] |  | 30 ± 2 mm |  | 25 ± 1 mm | 0 mm | 0 mm | 8 ± 1 mm | 2300 nM | 0.1 | 2200 nM | 0.1 | 300 nM | 700 nM | 0.4 | + | 0.02 | comparable with antibiotics vancomicin and gentamicin | residual effect | Diameter of Zone Inhibition, S. aureus (S. aureus ATCC 21027 [1]; 1 µg/well): +
25 µM (≈ 9.16 µg/mL) | 274 to 276 °C | O=C1C2=C(O[C@@H]3[C@@H](O)[C@H](O)[C@@H](CO)O[C@H]3S2)C(=O)c2c(O)cccc21 [Compound 20a, (2R,3S,4S,4aR,12aS)-3,4,7-Trihydroxy-2-(hydroxymethyl)-3,4,4a,12a-tetrahydro-2H-naphtho[2,3-b]pyrano-[2,3-e][2,5]oxathiine-6,11-dione] | 0 mm | 30 ± 2 mm | 0 mm | 22 ± 1 mm | 0 mm | 0 mm | 0 mm | 6300 nM | 0.1 | 700 nM | 1 | 700 nM | 2700 nM | 0.3 |  |  |  |  | 
